Test results as given in patent US20150190416A1, “FILAGGRIN PRODUCTION PROMOTER, THERAPEUTIC AGENT FOR DISEASES ASSOCIATED WITH REDUCTION IN PRODUCTION OF FILAGGRIN, AND METHOD FOR SCREENING FOR SAID THERAPEUTIC AGENT” (KYOTO UNIVERSITY, priority 2012, published 2015).

Experiments:
Format in all cases: cell-based, human
FLG monomer = FLG monomer in three-dimensional cultured skin, Western blotting (Example 11); details: 1 μM, immunoblotting
Protocol: In this example, the expression-increasing effect of Compound 1 on FLG monomer was examined by using a three-dimensional cultured skin. The expression of the FLG monomer was confirmed by Western blotting.
In this example, the same procedures as those in the steps 1) to 3) of Example 10 were conducted. It should be noted that as a medicament, D) Comparative Compound 3 (M344) was used, as well as A) Compound 1 and C) Comparative Compound 2 of Example 10.
4) The three-dimensional cultured skin obtained in the same manner as in the steps 1) to 3) of Example 10 was recovered, and was cut into pieces with scissors. Then, 100 μl of Lysis buffer (0.1 M Tris-HCl (pH 9.0), 6 M Urea, 1% 2-mercapto-ethanol, 1% SDS, 1 mM EDTA, and Protease inhibitor cocktail) were added and the cells were homogenized with an electrically powered pestle. The homogenized cells were centrifuged at 15,000 rpm at 4° C. for 20 minutes, and the supernatant was recovered to be used as a sample for measurement. The total protein in the sample was quantified by using a protein assay reagent (Bio-Rad Laboratories, Inc.) according to the manufacturer's protocol. The protein was adjusted so that each sample contained 15 μg protein/lane, and the samples were subjected to electrophoresis by SDS-PAGE (Invitrogen, NuPAE Novex Bis-Tris mini Gel 4 to 12%) under the conditions of 100 V and 2 hours. As a marker, Precision Plus Protein Standards (Bio-Rad Laboratories, Inc.) was used. The proteins separated by the electrophoresis were transferred to a PVDF membrane (blotting), and the expression of FLG monomer was confirmed by using an anti-FLG antibody (Filaggrin AKH1, Santa Crus). At that time, Anti-mouse IgG-HRP (GE Healthcare) was used as a secondary antibody, and Amersham ECL Plus Western Blotting Detection Reagents (GE Healthcare) was used as a color developer.

GPR142 = experiment: Blocking effect by GPR142 RNAi in NHEK cells (Examples 5 and 6); details: 1 day; for induction of FLG mRNA expression: dependence on GPR142: GPR142 siRNA, compound 10 nM
Protocol: In this example, it was confirmed that the expression-inducing effects of Compound 1 on GPR142 mRNA and FLG mRNA in NHEK cells were blocked by GPR142 RNAi.
(§1) 1) 5×10^4 cells/well of NHEK cells (Invitrogen) were plated on a 24-well plate. Then, 500 μl of a culture medium containing a medium for proliferating normal human epidermal keratinocytes (HuMedia-KG2, KURABO INDUSTRIES LTD.) supplemented with hEGF (0.1 ng/ml), insulin (10 μg/ml), hydrocortisone (0.5 μg/ml), gentamycin (50 μg/ml), amphotericin B (50 ng/ml), and bovine brain pituitary extract (BPE) (0.4%, v/v) were added to the plate, and the cells were cultured under the conditions of 37° C. and 5% CO2.
2) After culture under the conditions of the step 1) for 1 day, the medium was exchanged for the culture medium of the step 1) to which CaCl2 (1.2 mM in terms of Ca) was further added as Ca, and culture was conducted under the conditions of 37° C. and 5% CO2. After culture for 1 day, the medium was exchanged for the same culture medium containing Ca, and culture was further conducted for 1 day.
3) The NHEK cells of the step 2) were transfected with 50 nM of siRNA per well of the 24-well plate by using a transfection reagent, Lipofectamine RNA Max (Invitrogen) according to the manufacturer's protocol.
The sequences of the used three kinds of GPR142 siRNAs and the sequences of the used control siRNAs (all the siRNAs are manufactured by Invitrogen) are described below.
4) After culture for 1 day after the transfection with siRNA in the step 3), the medium was exchanged for the culture medium of the step 1) to which a DMSO solution of Compound 1 was added at 10 nM per well, and culture was further conducted for 1 day. As a control, a solvent only (vehicle) was added.
5) An extraction reagent (TRIzol™, Invitrogen) was used, and according to the manufacturer's protocol, total RNA was extracted from each of cells treated with the medicament. A reverse transcriptase reagent (Prime Script™, Takara) was used, and according to the manufacturer's protocol, cDNA was prepared from the total RNA. Next, real-time PCR was conducted by using the following primers and SYBR™ Premix Ex Taq (Takara) with a CFX96 real-time PCR instrument according to the manufacturer's protocol, and the amounts of GPR142 mRNA and FLG mRNA expression were measured. The result of measurement is shown as a GAPDH ratio.
In this example, it was confirmed that the expression-inducing effects of Compound 2 or 3 on GPR142 mRNA and FLG mRNA in NHEK cells were blocked by GPR142 RNAi.
NHEK cells were transfected in the same manner as in Example 5 except that, in the steps 1) to 3) of Example 5, two kinds of GPR142 siRNAs and two kinds of control siRNAs, i.e., GPR142-1 (#HSS139493) and GPR142-3 (#HSS179846) and Control-1 (LOW GC, #129350-200), and Control-3 (HIGH GC, #129350-400) were used as GPR142 siRNAs and control siRNAs, respectively. After culture for 1 day after the transfection was conducted in the same manner as in the step 4) of Example 5, the medium was exchanged for the culture medium to which each of a DMSO solution of Compound 1, a DMSO solution of Compound 2, or a methanol solution of Compound 3 was added at 10 nM per well, and culture was further conducted for 1 day. As a control, a solvent only (vehicle) was added. Regarding each of cells treated with the medicament, real-time PCR was conducted to measure the amounts of GPR142 mRNA and FLG mRNA in the same manner as in the step 5) of Example 5. The results of the measurement are shown as a GAPDH ratio.

GPR22 = experiment: Blocking effect by GPR22 RNAi in NHEK cells (Reference Example 1); details: calcium priming, siRNA 10 nM, Compound 1 10 nM, 1 day
Protocol: as §1
2) 1 day after the step 1), the medium was exchanged for the medium supplemented with calcium every day, and culture was conducted for 2 days (priming).
3) The NHEK cells of the step 2) were transfected with 10 nM of siRNA per well of the 24-well plate by using a transfection reagent, Lipofectamine RNA Max (Invitrogen) according to the manufacturer's protocol.
4) After culture for 1 day after the step 3), the medium was exchanged for a medium to which Compound 1 dissolved in DMSO was added at 10 nM per well on the 24-well plate, and culture was conducted for 1 day. As a control example, a solvent only (vehicle) was added.
5) An extraction reagent (TRIzol™, Invitrogen) was used, and according to the manufacturer's protocol, total RNA was extracted from each of cells treated with the medicament. A reverse transcriptase reagent (Prime Script™, Takara) was used, and according to the manufacturer's protocol, cDNA was prepared from the total RNA. Real-time PCR was conducted by using SYBR™ Premix Ex Taq (Takara) with a CFX96 real-time PCR instrument according to the manufacturer's protocol, and the amounts of GPR22 mRNA and FLG mRNA were measured. The results of measurement are shown as a GAPDH ratio.

[1] = calcium priming, siRNA 50 nM, Compound 1 10 nM

O=C(CCCCCN1C(=O)c2cccc3cccc(c23)C1=O)NO [Comparative Compound 2, 6-(1,3-Dioxo-1H,3H-benzo[de]isoquinolin-2-yl)hexanoic acid hydroxyamide, reference compound]
production of FLG monomer (FLG monomer): clear production of FLG monomer was not observed

CCc1ccc(OCc2ccccc2C(=O)Nc2ccc3nc(C)cc(N)c3c2)cc1.Cl [Compound 1, N-(4-Amino-2-methyl-6-quinolyl)-2-[(4-ethylphenoxy)methyl]benzamide hydrochloride]
induction of FLG mRNA expression: dependence on GPR142 (GPR142): mediated by GPR142
FLG mRNA expression in the presence of GPR142 siRNA (GPR142; [1]): suppressed by GPR142 siRNA
GPR142 mRNA expression in the presence of GPR142 siRNA (GPR142; [1]): suppressed by GPR142 siRNA
FLG mRNA expression in the presence of GPR22 siRNA (GPR22): not suppressed
GPR22 mRNA expression in the presence of GPR22 siRNA (GPR22): suppressed by GPR22 siRNA
production of FLG monomer (FLG monomer): clear production of FLG monomer was confirmed
production of pro-FLG (FLG monomer): production of a large amount of pro-FLG

CC[C@H](C)[C@H]1O[C@]2(CC[C@@H]1C)C[C@@H]1C[C@@H](C/C=C(\C)[C@@H](O[C@H]3C[C@H](OC)[C@@H](O[C@H]4C[C@H](OC)[C@@H](O)[C@H](C)O4)[C@H](C)O3)[C@@H](C)/C=C/C=C3\CO[C@@H]4[C@H](O)C(C)=C[C@@H](C(=O)O1)[C@]34O)O2 [Compound 2, Ivermectin, reference compound]
induction of FLG mRNA expression: dependence on GPR142 (GPR142): mediated by GPR142
